# Measurements taken from ChEMBL document CHEMBL4359901, “Cyclic enaminone as new chemotype for selective cyclooxygenase-2 inhibitory, anti-inflammatory, and analgesic activities” (Eur J Med Chem, 2019).
# How the values were obtained:
# [1] = Cardiotoxicity in Sprague-Dawley rat assessed as SBP rate at 50 mg/kg; type: toxicity, organism-based; details: in vivo
# Rattus norvegicus [2] = test: Antiinflammatory activity in Sprague-Dawley rat model of carrageenan-induced thermal hyperalgesia assessed as paw withdrawal latency pressure at 50 mg/kg, po administered 1 hr prior to carrageenan challenge and measured after 3 hrs by Von-frey test (reference value: 31.65 +/- 3.33 g); type: functional
# [3] = Antioxidant activity assessed as DPPH radical scavenging activity incubated for 20 mins by spectrophotometric method; type: functional
# Rattus norvegicus [4] = test: Antiinflammatory activity in Sprague-Dawley rat model of carrageenan-induced thermal hyperalgesia assessed as paw withdrawal latency pressure at 50 mg/kg, po administered 1 hr prior to carrageenan challenge and measured after 2 hrs by Von-frey test (reference value: 146.47 +/- 5.12 g); type: functional
# Rattus norvegicus [5] = test: Antiinflammatory activity in Sprague-Dawley rat model of carrageenan-induced thermal hyperalgesia assessed as paw withdrawal latency time at 30 mg/kg, po administered 1 hr prior to carrageenan challenge and measured after 4 hrs by planter test (reference value: 5.47 +/- 0.84 sec); type: functional
# Rattus norvegicus [6] = test: Antiinflammatory activity in Sprague-Dawley rat model of carrageenan-induced thermal hyperalgesia assessed as paw withdrawal latency time at 50 mg/kg, po administered 1 hr prior to carrageenan challenge and measured after 3 hrs by planter test (reference value: 4.13 +/- 0.45 sec); type: functional
# Rattus norvegicus [7] = test: Antiinflammatory activity in Sprague-Dawley rat model of carrageenan-induced thermal hyperalgesia assessed as paw withdrawal latency pressure at 30 mg/kg, po administered 1 hr prior to carrageenan challenge and measured after 2 hrs by Randall-Selitto test (reference value: 231.13 +/- 3.15 g); type: functional
# [8] = Selectivity index, ratio of IC50 for inhibition of ovine COX1 to IC50 for inhibition of recombinant human COX2
# Rattus norvegicus [9] = test: Antiinflammatory activity in Sprague-Dawley rat model of carrageenan-induced thermal hyperalgesia assessed as paw withdrawal latency time at 30 mg/kg, po administered 1 hr prior to carrageenan challenge and measured after 1 hr by planter test (reference value: 8.88 +/- 0.52 sec); type: functional
# Rattus norvegicus [10] = test: Analgesic activity in Wistar albino rat assessed as reaction time at 25 mg/kg, ip measured after 180 mins for 15 secs by hot plate method (reference value: 3.87 +/- 0.38 sec); type: functional
# [11] = Cardiotoxicity in Sprague-Dawley rat assessed as heart rate at 50 mg/kg; type: toxicity, organism-based; details: in vivo
# Rattus norvegicus [12] = test: Analgesic activity in Wistar albino rat assessed as reaction time at 12.5 mg/kg, ip measured after 60 mins for 15 secs by hot plate method (reference value: 4.67 +/- 0.52 sec); type: functional
# [13] = target: Prostaglandin G/H synthase 1 (Ovis aries) (UniProt P05979); test: Inhibition of ovine COX1 assessed as reduction in PGF2alpha at 10 uM incubated for 2 mins using arachidonic acid as substrate by ELISA relative to control
# Rattus norvegicus [14] = test: Antiinflammatory activity in Sprague-Dawley rat model of carrageenan-induced thermal hyperalgesia assessed as paw withdrawal latency time at 50 mg/kg, po administered 1 hr prior to carrageenan challenge and measured after 5 hrs by planter test (reference value: 7.5 +/- 0.74 sec); type: functional
# Rattus norvegicus [15] = test: Antiinflammatory activity in Sprague-Dawley rat model of carrageenan-induced thermal hyperalgesia assessed as paw withdrawal latency time at 30 mg/kg, po administered 1 hr prior to carrageenan challenge and measured after 5 hrs by planter test (reference value: 7.5 +/- 0.74 sec); type: functional
# Rattus norvegicus [16] = test: Antiinflammatory activity in Sprague-Dawley rat model of carrageenan-induced thermal hyperalgesia assessed as paw withdrawal latency pressure at 50 mg/kg, po administered 1 hr prior to carrageenan challenge and measured after 5 hrs by Von-frey test (reference value: 169.58 +/- 4.26 g); type: functional
# [17] = Antioxidant activity assessed as DPPH radical scavenging activity at 40 uM/ml incubated for 20 mins by spectrophotometric method relative to control; type: functional
# [18] = Ulcerogenicity in Sprague-Dawley rat assessed as formation of ulcer at 50 mg/kg, po after 1 hr by microscopic analysis; type: toxicity, organism-based; details: in vivo
# [19] = Antioxidant activity assessed as DPPH radical scavenging activity at 80 uM/ml incubated for 20 mins by spectrophotometric method relative to control; type: functional
# [20] = Antioxidant activity assessed as DPPH radical scavenging activity at 60 uM/ml incubated for 20 mins by spectrophotometric method relative to control; type: functional
# Rattus norvegicus [21] = test: Antiinflammatory activity in Wistar albino rat assessed as reduction in carrageenan-induced paw volume at 12.5 mg/kg, ip measured after 1 hr by plethysmometric method (reference value: 1.43 +/- 0.19 ml); type: functional
# [22] = Ulcerogenicity in Sprague-Dawley rat assessed as formation of ulcer at 30 mg/kg, po after 1 hr by microscopic analysis; type: toxicity, organism-based; details: in vivo
# Rattus norvegicus [23] = test: Antiinflammatory activity in Sprague-Dawley rat model of carrageenan-induced thermal hyperalgesia assessed as paw withdrawal latency time at 50 mg/kg, po administered 1 hr prior to carrageenan challenge and measured after 4 hrs by planter test (reference value: 5.47 +/- 0.84 sec); type: functional
# Rattus norvegicus [24] = test: Antiinflammatory activity in Sprague-Dawley rat model of carrageenan-induced thermal hyperalgesia assessed as paw withdrawal latency pressure at 30 mg/kg, po administered 1 hr prior to carrageenan challenge and measured after 1 hr by Von-frey test (reference value: 159.88 +/- 4.66 g); type: functional
# Rattus norvegicus [25] = test: Antiinflammatory activity in Sprague-Dawley rat model of carrageenan-induced thermal hyperalgesia assessed as paw withdrawal latency pressure at 50 mg/kg, po administered 1 hr prior to carrageenan challenge and measured after 3 hrs by Von-frey test (reference value: 146.61 +/- 1.58 g); type: functional
# Rattus norvegicus [26] = test: Analgesic activity in Wistar albino rat assessed as reaction time at 12.5 mg/kg, ip measured after 180 mins for 15 secs by hot plate method (reference value: 3.87 +/- 0.38 sec); type: functional
# Rattus norvegicus [27] = test: Analgesic activity in Wistar albino rat assessed as reaction time at 25 mg/kg, ip measured after 30 mins for 15 secs by hot plate method (reference value: 4.21 +/- 0.41 sec); type: functional
# Rattus norvegicus [28] = test: Antiinflammatory activity in Sprague-Dawley rat model of carrageenan-induced thermal hyperalgesia assessed as paw withdrawal latency pressure at 30 mg/kg, po administered 1 hr prior to carrageenan challenge and measured after 5 hrs by Von-frey test (reference value: 169.58 +/- 4.26 g); type: functional
# Rattus norvegicus [29] = test: Antiinflammatory activity in Sprague-Dawley rat model of carrageenan-induced thermal hyperalgesia assessed as paw withdrawal latency time at 50 mg/kg, po administered 1 hr prior to carrageenan challenge and measured after 2 hrs by planter test (reference value: 6.17 +/- 0.58 sec); type: functional
# Rattus norvegicus [30] = test: Analgesic activity in Wistar albino rat assessed as reaction time at 25 mg/kg, ip measured after 60 mins for 15 secs by hot plate method (reference value: 4.67 +/- 0.52 sec); type: functional
# Rattus norvegicus [31] = test: Antiinflammatory activity in Sprague-Dawley rat model of carrageenan-induced thermal hyperalgesia assessed as paw withdrawal latency time at 30 mg/kg, po administered 1 hr prior to carrageenan challenge and measured after 3 hrs by planter test (reference value: 4.13 +/- 0.45 sec); type: functional
smiles,measurement,setting,value
CC(=O)N(C1=CC(=O)CCC1)c1ccc(Cl)cc1,Activity,[1],Non-Toxic
same,Activity,Rattus norvegicus [2],166.86 g
same,IC50,[3],48 µM
same,Activity,Rattus norvegicus [4],168.03 g
same,Time,Rattus norvegicus [5],6.67 s
same,Time,Rattus norvegicus [6],8.38 s
same,Activity,Rattus norvegicus [7],262.26 g
same,Ratio IC50,[8],109
same,Time,Rattus norvegicus [9],10.58 s
same,Time,Rattus norvegicus [10],11.88 s
same,Activity,[11],Non-Toxic
same,Time,Rattus norvegicus [12],6.85 s
same,inhibition,[13],10.8%
same,Time,Rattus norvegicus [14],9.3 s
same,Time,Rattus norvegicus [15],6.37 s
same,Activity,Rattus norvegicus [16],168.65 g
same,Activity,[17],48%
same,UI,[18],0
same,Activity,[19],83.9%
same,Activity,[20],65.3%
same,Activity,Rattus norvegicus [21],1.3 mL
same,Activity,[22],Non-Toxic
same,Time,Rattus norvegicus [23],9.58 s
same,Activity,Rattus norvegicus [24],166.7 g
same,Activity,Rattus norvegicus [25],169.23 g
same,Time,Rattus norvegicus [26],8.22 s
same,Time,Rattus norvegicus [27],6.86 s
same,Activity,Rattus norvegicus [28],161.8 g
same,Time,Rattus norvegicus [29],9.67 s
same,Time,Rattus norvegicus [30],7.27 s
same,Time,Rattus norvegicus [31],6.95 s
